The text below walks through data of patent US9765294B2 (priority 2013, dated 2017).

Where two headings read alike, the source gives them in different places.

The subject of assay [1] is B. pertussis. The assay is classed as cell-based, Bordetella pertussis.
In assay [2] the test system is B. pertussis. Format: cell-based, Bordetella pertussis. The settings on record: for Growth: 53 h; for Biomass yield after 53 h: sole sulfur source, 35° C.; for Support of growth as the sole source of sulfur: medium containing no other S source.
The test system of another assay is Bordetella pertussis. Format: cell-based.
For assay [3], the system named is B. pertussis. Description: Growth in minimal media containing only one amino acid, shake-flasks. Format: cell-based, Bordetella pertussis. The settings on record: L-cysteine 125 mM as single amino acid, no thiosulfate added. On the procedure:
Assays were performed in order to determine whether growth of B. pertussis is possible in minimal media containing a single amino acid as the sole source of carbon and nitrogen. A shake-flask containing 7.5 ml fresh medium (B-CDM containing 0.604 g/L niacin) was inoculated with 10^9 B. pertussis CFUs and incubated at 35° C. (+/−1° C.) and 150 rpm for 24 h (+/−5 h). Cells were harvested by centrifugation, washed twice with NaCl 0.9% (w/v), and resuspended in fresh medium (see composition in Table 12) at a theoretical OD650 nm of 0.5, as calculated from the OD650 nm of the culture before harvest. 1 ml of this cell suspension was used to inoculate shake-flasks containing 30 ml of the medium in Table 12, supplemented with a single amino acid (L-cysteine 125 mM, L-proline 125 mM, L-glutamate 125 mM, L-glutamine 125 mM, L-aspartate 30 mM, L-asparagine 125 mM, L-serine 125 mM, or L-alanine 125 mM) as a source of C and N, and thiosulfate 0.25 mM as a source of S (except for L-Cys supplementation, where no thiosulfate was added). The same medium with ammonium chloride (25 mM) and thiosulfate (0.25 mM), but no amino acid, was used as a negative control. The shake flasks were then incubated for approximately 10 days at 35° C. under constant shaking (150 rpm). Growth was monitored as OD650 nm.

The mark [4] stands for this setting: buffer 6.1 g/L, control conditions.
[5] abbreviates: buffer 2.5 g/L, relative to Tris control.
The mark [6] stands for this setting: buffer 5.0 g/L, relative to Tris control.
Where [7] appears, read: buffer 10.0 g/L, relative to Tris control.
Where [8] appears, read: buffer 20.0 g/L, relative to Tris control.

Take tris(hydroxymethyl)aminomethane: in the assay with B. pertussis [1] (setting [4]), the “Relative biomass yield after 24 h” value amounted to 100% and the “Relative biomass yield after 48 h” value amounted to 100%.
As to `O=S([O-])[O-].[Na+].[Na+]` [disodium sulfite], in the assay with B. pertussis [2] (1 mM in medium), the Growth entry is recorded as “−” and the “Biomass yield after 53 h” value was 0.011 OD650nm. Moreover, the “Biomass yield after 53 h” value in the assay on B. pertussis [2] (12 mM in medium) turned out to be 0.007 OD650nm. Besides, the “Support of growth as the sole source of sulfur” value (shortened to “Support of growth … of sulfur”) with B. pertussis [2] was “not able to support growth”.
Take `O=S(=O)(O)CCCN1CCOCC1` [MOPS, 3-(N-morpholino)propanesulfonic acid]: the “Support of growth as buffer in B-CDM” value with B. pertussis [1] is reported as “able to support growth”. Also, the “Relative biomass yield after 24 h” value in the assay on B. pertussis [1] (setting [5]) amounted to 114%; with B. pertussis [1] (setting [6]) it was 85%; in the assay on B. pertussis [1] (setting [7]), 111%; in the assay with B. pertussis [1] (setting [8]), 81%. Besides, the “Relative biomass yield after 48 h” value in the assay with B. pertussis [1] (setting [5]) is listed as 91%; in the assay on B. pertussis [1] (setting [6]), 88%; in the assay with B. pertussis [1] (setting [7]), 84%; in the assay on B. pertussis [1] (setting [8]), 76%.
For `[Cl][Cu][Cl]` [CuCl2], the Biomass yield result in the assay on Bordetella pertussis is given as “significant increase”.
Turning to `O=S(=O)([O-])[O-].[Na+].[Na+]` [disodium sulfate], in the assay on B. pertussis [2] (12 mM in medium), the Growth entry was “−” and the “Biomass yield after 53 h” value was 0.015 OD650nm. For the same compound, the “Support of growth … of sulfur” value in the assay on B. pertussis [2] was “not able to support growth”.
With `O=S(O)(O)=S` [disodium thiosulfate], in the assay on B. pertussis [2] (1 mM in medium), the Growth entry is recorded as “+” and the “Biomass yield after 53 h” value is listed as 0.227 OD650nm. In addition, in the assay on B. pertussis [2] (12 mM in medium), the Growth result was “+” and the “Biomass yield after 53 h” value worked out at 0.472 OD650nm. Further, the “Support of growth … of sulfur” value in the assay with B. pertussis [2] is on record as “growth was observed”.
For `O=P(O)(O)OC(CO)CO` [β-glycerophosphate], in the assay with B. pertussis [1], the “Support of growth as buffer in B-CDM” value is listed as “able to support growth”. For the same compound, the “Relative biomass yield after 24 h” value stood at 88% with B. pertussis [1] (setting [5]), 89% in the assay with B. pertussis [1] (setting [6]), 68% in the assay with B. pertussis [1] (setting [7]) and 46% in the assay with B. pertussis [1] (setting [8]). In addition, the “Relative biomass yield after 48 h” value was determined as 79% with B. pertussis [1] (setting [5]), 67% in the assay with B. pertussis [1] (setting [6]), 59% in the assay with B. pertussis [1] (setting [7]) and 45% in the assay with B. pertussis [1] (setting [8]).
With `N[C@@H](CS)C(=O)O` [L-cysteine], in the assay on B. pertussis [2] (27 mM in medium), the Growth result is listed as “+” and the “Biomass yield after 53 h” value is on record as 0.512 OD650nm. For the same compound, the “Need for an additional source of sulfur” value in the assay on B. pertussis [3] was “no additional source of sulfur was required”.
